Source: article PMC6585716, “Protein catalyzed capture agents with tailored performance for in vitro and in vivo applications” (Biopolymers, 2017)
Read-outs that look alike come from different tables or passages of the source. Blank lines part the entries; values can stand above or below the compound they belong to. Starred links: 1 amine or outer side, 2 acyl side, 3 side chain; linkers in the order of their positions; H or OH if unused. Positions of bridges follow the written chain, without caps; N, C: chain ends. Non-standard residues stand in square brackets, D forms with d. Residues, ends and D or L forms follow the SMILES beside them. Triazole bridges read from a SMILES are 1,4-linked. Chains are numbered I, II in the order given. *: point of attachment. X1 = O=C(CCCC[C@@H]1SC[C@@H]2NC(=O)N[C@@H]21)NCCCOCCOCCOCCCN*; Lys(N3) = [N-]=[N+]=NCCCC[C@H](N)C(=O)O; Suc = O=C(CCC(=O)[*:2])[*:1]; dPra = C#CC[C@@H](N)C(=O)O

Key:
[1] = in vivo; conditions: male, CD-1, mouse
[2] = pH 7.4
[3] = mouse, in vivo, ip, 5 mg/kg
[4] = In vivo pharmacokinetics in mice (IV or IP, parallel sampling); conditions: for AUC% Ext: male CD-1 mice
[5] = male, CD-1, mouse, plasma, ip, 5 mg/kg
[6] = male, CD-1, mouse, plasma, iv, 1 mg/kg

AUC(0-inf) ([1]; ip, 5 mg/kg): 2.42 µg·h/mL
AUC(0-t) ([1]; ip, 5 mg/kg): 2.17 µg·h/mL
Cmax ([1]; ip, 5 mg/kg): 3.21 µg/mL
Tmax ([1]; ip, 5 mg/kg): 10.2 min
half-life ([1]; ip, 5 mg/kg): 154 min
AUC(0-inf) ([1]; iv, 1 mg/kg): 1.11 µg·h/mL
AUC(0-t) ([1]; iv, 1 mg/kg): 1.05 µg·h/mL
Vd ([1]; iv, 1 mg/kg): 0.16 L/kg
clearance ([1]; iv, 1 mg/kg): 0.9 L/h/kg
half-life ([1]; iv, 1 mg/kg): 7 min
resistance to metabolic degradation by mouse liver microsomes (in words) [2]: high resistance to metabolic degradation
bioavailability [3]: 41%
SMILES: CC[C@H](C)[C@@H]1NC(=O)[C@H](CC(=O)O)NC(=O)[C@@H](NC(=O)[C@H](CC(N)=O)NC(=O)[C@@H]2CCCN2C(=O)[C@H](CCC(=O)O)NC(=O)[C@@H](NC(=O)CCC(=O)NCCCOCCOCCOCCCNC(=O)CCCC[C@@H]2SC[C@@H]3NC(=O)N[C@@H]32)C(C)C)CSSC[C@@H](C(=O)N[C@@H](Cc2ccccc2)C(=O)N[C@@H](CCC(=O)O)C(=O)N[C@@H](CCCNC(=N)N)C(=O)N[C@@H](CC(C)C)C(=O)N[C@@H](CCCCn2cc(C[C@@H](N)C(=O)N[C@H](CC(C)C)C(=O)N[C@H](Cc3ccccc3)C(=O)N[C@H](CCCNC(=N)N)C(=O)N[C@H](CCC(=O)O)C(=O)N[C@H](Cc3c[nH]c4ccccc34)C(N)=O)nn2)C(=O)O)NC(=O)[C@H](CCC(=O)O)NC(=O)[C@H](Cc2c[nH]c3ccccc23)NC(=O)[C@H](CCC(=O)O)NC(=O)[C@H](Cc2c[nH]c3ccccc23)NC(=O)[C@H](CCSC)NC(=O)[C@H](C(C)C)NC(=O)[C@H](Cc2c[nH]cn2)NC1=O [Bi‐LV] (I: {X1-Suc}-VEPNCDIHVMWEWECFERL[Lys(N3)]-OH / II: H-[dPra][dL][dF][dR][dE][dW]-NH2; disulfide I:5-I:15; triazole I:20-II:1)

SMILES: CC[C@@H](C)[C@@H](NC(=O)[C@@H](CCC(=O)O)NC(=O)[C@@H](CCC(=O)O)NC(=O)[C@H](N)Cc1cn(CCCC[C@H](NC(=O)[C@@H](Cc2c[nH]c3ccccc23)NC(=O)[C@@H](CCC(=O)O)NC(=O)[C@@H](CCCNC(=N)N)NC(=O)[C@@H](Cc2ccccc2)NC(=O)[C@@H](CC(C)C)NC(=O)[C@H](N)Cc2cn(CCCC[C@H](NC(=O)[C@H](CC(C)C)NC(=O)[C@H](CCCNC(=N)N)NC(=O)[C@H](CCC(=O)O)NC(=O)[C@H](Cc3ccccc3)NC(=O)[C@@H]3CSSC[C@H](NC(=O)[C@H](CC(N)=O)NC(=O)[C@@H]4CCCN4C(=O)[C@H](CCC(=O)O)NC(=O)[C@@H](NC(=O)CCC(=O)NCCCOCCOCCOCCCNC(=O)CCCC[C@@H]4SC[C@@H]5NC(=O)N[C@@H]54)C(C)C)C(=O)N[C@@H](CC(=O)O)C(=O)N[C@@H]([C@@H](C)CC)C(=O)N[C@@H](Cc4c[nH]cn4)C(=O)N[C@@H](C(C)C)C(=O)N[C@@H](CCSC)C(=O)N[C@@H](Cc4c[nH]c5ccccc45)C(=O)N[C@@H](CCC(=O)O)C(=O)N[C@@H](Cc4c[nH]c5ccccc45)C(=O)N[C@@H](CCC(=O)O)C(=O)N3)C(=O)O)nn2)C(=O)O)nn1)C(=O)N[C@H](CCCNC(=N)N)C(=O)N[C@H](CC(=O)O)C(N)=O [Tri‐LV] (I: {X1-Suc}-VEPNCDIHVMWEWECFERL[Lys(N3)]-OH / II: H-[dPra][dL][dF][dR][dE][dW][Lys(N3)]-OH / III: H-[dPra][dE][dE][dI][dR][dD]-NH2; disulfide I:5-I:15; triazole I:20-II:1, II:7-III:1)
AUC% Ext ([4]; IP, 5 mg/kg single dose, plasma): 2.04%
AUC% Ext ([4]; IV, 1 mg/kg single dose, plasma): 6.49%
AUC(0-inf) [4, 5]: 32.2 µg·h/mL
AUC(0-t) [4, 5]: 31.5 µg·h/mL
Cmax [4, 5]: 19.8 µg/mL
Tmax [4, 5]: 30 min
AUC(0-inf) [4, 6]: 6.49 µg·h/mL
AUC(0-t) [4, 6]: 6.07 µg·h/mL
Vd [4, 6]: 0.0967 L/kg
clearance [4, 6]: 0.154 L/h/kg
bioavailability ([4]; mouse, in vivo, ip, 5 mg/kg): 99%
